Assays:
α10 I-domain = molecular target: T1, α10 I-domain (Homo sapiens, UniProt O75578); experiment: Solid-phase binding assay, α10 I-domain binding to type I collagen; conditions: at 0.05 mM concentration; FIG. 9
T1 construct: corresponding to amino acids 141-337 of the whole α10 integrin; made in house; host or cells: E. coli BL21 (pGEX-2T)
T1 sequence (O75578 163-359): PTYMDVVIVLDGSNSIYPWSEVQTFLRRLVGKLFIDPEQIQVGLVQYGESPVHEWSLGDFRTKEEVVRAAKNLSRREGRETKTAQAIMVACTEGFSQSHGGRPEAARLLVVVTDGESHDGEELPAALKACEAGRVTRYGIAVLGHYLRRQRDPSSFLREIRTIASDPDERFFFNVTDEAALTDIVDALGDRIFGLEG
Procedure: (§1) Solid-phase binding assay for α1-domains—The coating of a 96-well high binding microtiter plate (Nune) was done by exposure to 0.1 ml of PBS containing 5 μg/cm2 (15 μg/ml) collagens or 20 μg/ml triple-helical peptides overnight at +4° C. Blank wells were coated with 1:1 solution of 0.1 ml Delfia® Diluent II (Wallac) and PBS. Residual protein absorption sites on all wells were blocked with 1:1 solution of 0.1 ml Delfia® Diluent II (Wallac) and PBS. Recombinant proteins (αI-GST) were added to the coated wells at a desired concentration in Delfia® Assay Buffer and incubated for 1 h at room temperature. Europium-labelled anti-GST antibody (Wallac) was then added (typically 1:1000), and the mixture was incubated for 1 h at room temperature. All incubations mentioned above were done in the presence of 2 mM MgCl2. Delfia® enhancement solution (Wallac) was added to each well and the Europium signal was measured by time-resolved fluorometry (Victor2 multilabel counter, Wallac). At least three parallel wells were analyzed. In some cases some what modified solid-phase assay was used and it was performed according Tulla et al, 2001. It uses anti-GST and Europium-labelled protein G instead of Europium-labelled anti-GST antibody.
(§2) The inhibitory effect of L3009 was tested with all collagen binding integrin α I-domains, α1I, α2I, α10I and α11I as described in Example 4. […]

α1 I-domain = molecular target: T2, α1 I-domain (Homo sapiens, UniProt P56199); experiment: Solid-phase binding assay, α1 I-domain binding to type I collagen; conditions: at 0.05 mM concentration; FIG. 9
T2 construct: corresponding to amino acids 123-338 of the whole α1 integrin; made in house; host or cells: E. coli BL21 (pGEX-4T-3)
T2 sequence (P56199 151-366): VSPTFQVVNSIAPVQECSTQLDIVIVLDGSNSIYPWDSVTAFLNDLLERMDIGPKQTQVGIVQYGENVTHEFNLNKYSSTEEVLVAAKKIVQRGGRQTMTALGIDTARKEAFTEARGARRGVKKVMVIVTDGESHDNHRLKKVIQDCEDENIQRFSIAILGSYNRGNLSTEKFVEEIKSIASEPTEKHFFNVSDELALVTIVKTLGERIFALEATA
Procedure: as §1
(§3) The tetracyclic Streptomyces compounds synthesised in Example 1, where screened for inhibition of collagen binding to α1 and α2 I-domains, using the α I-domain assay described in Example 4. […] L3015 could inhibit the binding of both α1I and α2 I-domains to type I and type IV collagen (FIG. 6B).
Furthermore α1I and α2 I-domain binding to collagen I in the presence of lovastatin was tested in the europium-labelled anti-GST assay described in Example 4. Lovastatin is an allosteric inhibitor of leukocyte integrin α I-domains (e.g. αL I-domain), and the binding site of lovastatin represents an optional binding site for possible modulators. […] These biological tests gave further evidence that collagen receptor α I-domains are inhibited by direct blocking of the MIDAS surface by tetracyclic polyketide.

α2 I-domain = molecular target: T3, α2 I-domain (Homo sapiens, UniProt P17301); experiment: Solid-phase binding assay, α2 I-domain binding to type I collagen
T3 construct: corresponded to amino acids 124-339 of the whole α2 integrin; made in house; host or cells: E. coli BL21 (pGEX-2T)
T3 sequence (P17301 153-368): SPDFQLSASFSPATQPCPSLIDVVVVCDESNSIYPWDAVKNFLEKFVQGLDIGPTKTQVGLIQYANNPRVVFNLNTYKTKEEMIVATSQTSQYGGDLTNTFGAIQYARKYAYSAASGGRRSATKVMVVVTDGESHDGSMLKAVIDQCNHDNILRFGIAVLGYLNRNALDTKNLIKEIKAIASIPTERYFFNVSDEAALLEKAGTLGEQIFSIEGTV
Procedure: as §1, §3
Based on the utilization of 3D model other compounds from the polyketide family were tested. The compounds were tested in the europium-labelled anti-GST assay described in Example 4. Tetracyclic polyketides L3007, L3008, and L3009 could inhibit α2 I-domain binding to type I collagen (FIG. 8A).

α11 I-domain = molecular target: T4, α11 I-domain (Homo sapiens, UniProt Q9UKX5); experiment: Solid-phase binding assay, α11 I-domain binding to type I collagen; conditions: at 0.05 mM concentration; FIG. 9
T4 construct: two extra residues before α11I, residues 159-354; made in house; host or cells: E. coli BL21
T4 sequence (Q9UKX5 159-354): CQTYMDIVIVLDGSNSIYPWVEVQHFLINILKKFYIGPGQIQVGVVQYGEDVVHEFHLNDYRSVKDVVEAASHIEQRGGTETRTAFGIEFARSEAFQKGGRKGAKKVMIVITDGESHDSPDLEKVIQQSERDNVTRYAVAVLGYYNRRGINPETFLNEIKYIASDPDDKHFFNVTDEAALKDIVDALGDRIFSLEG
Procedure: as §1, §2

COC(=O)c1c(C(C)C)cc(O)c2c(O)c3c(c(O)c12)C(=O)c1cccc(O)c1C3=O [Compound L3009, methyl 4,5,7,12-tetrahydroxy-2-methylethyl)-6,11-dioxonaphthacenecarboxylate]
could inhibit: inhibition of collagen I binding of α10I (α10 I-domain) | inhibition of collagen I binding of α1I (α1 I-domain) | inhibition of α2 I-domain binding to type I collagen (in words) (α2 I-domain; FIG. 6B, 7A, 8A) | inhibition of collagen I binding of α2I (α2 I-domain; at 0.05 mM concentration, FIG. 9) | inhibition of collagen I binding of α11I (α11 I-domain)
